Values after ≈ are worked out from the molar mass of the structure shown. Bounds are passed on as bounds.

Holding throughout (type): functional
Assay [1] relates to Staphylococcus aureus. Description: Antimicrobial activity against gram positive Staphylococcus aureus (V41) was determined.
Assay [2] has as its system Staphylococcus epidermidis. Description: Antimicrobial activity against gram positive Staphylococcus epidermidis (222) was determined.
The next assay deals with Escherichia coli. Description: Antimicrobial activity against gram negative Escherichia coli (EC14) was determined.
Assay [3] concerns Staphylococcus aureus. Description: Antimicrobial activity against gram positive Staphylococcus aureus (X1.1) was determined.
The subject of the next assay is Streptococcus pneumoniae. Put plainly: Antimicrobial activity against gram positive Streptococcus pneumoniae (PARK) was determined.

As for `COP(=O)(OC)OC1=C(C(=O)[O-])N2C(=O)[C@@H](NC(=O)COc3ccccc3)[C@H]2CC1.[Na+]`, the MIC against Staphylococcus aureus [1] was found to be 2 µg/mL; in assay [2], 1 µg/mL; with Escherichia coli, 64 µg/mL; against Staphylococcus aureus [3], 0.5 µg/mL; in the assay on Streptococcus pneumoniae, 0.5 µg/mL.

As for `CC1(C)S[C@@H]2[C@H](NC(=O)COc3ccccc3)C(=O)N2[C@H]1C(=O)O` [PENICILLIN V], the MIC against Staphylococcus aureus [1] is 16 µg/mL (≈ 45.7 µM); in assay [2] it was 0.125 µg/mL (≈ 0.357 µM); against Escherichia coli it was 128 µg/mL (≈ 365 µM); in the assay with Staphylococcus aureus [3], 0.06 µg/mL (≈ 0.171 µM); against Streptococcus pneumoniae, 0.06 µg/mL (≈ 0.171 µM).

For `O=C(COc1ccccc1)N[C@@H]1C(=O)N2C(C(=O)O)=C(OP(=O)(O)O)CC[C@H]12`, the minimal inhibitory concentration (MIC) was above 128 µg/mL in the assay on Staphylococcus aureus [1]; above 128 µg/mL in assay [2]; above 128 µg/mL in the assay on Escherichia coli; 64 µg/mL (≈ 155 µM) in the assay with Staphylococcus aureus [3]; above 128 µg/mL against Streptococcus pneumoniae.

For `CCOP(=O)(OCC)OC1=C(C(=O)[O-])N2C(=O)[C@@H](NC(=O)COc3ccccc3)[C@H]2CC1.[Na+]`, the MIC with Staphylococcus aureus [1] worked out at 2 µg/mL; in assay [2], 1 µg/mL; in the assay with Escherichia coli it was 64 µg/mL; in the assay with Staphylococcus aureus [3], 0.25 µg/mL; in the assay on Streptococcus pneumoniae it was 0.25 µg/mL.

`N[C@@H](C(=O)N[C@@H]1C(=O)N2C(C(=O)O)=C(Cl)CC[C@H]12)c1ccccc1` [LORACARBEF ANHYDROUS]: the minimum inhibitory concentration (MIC) in the assay on Staphylococcus aureus [1] was 4 µg/mL (≈ 11.4 µM); in assay [2], 2 µg/mL (≈ 5.72 µM); in the assay with Escherichia coli it was 0.05 µg/mL (≈ 0.143 µM); in the assay with Staphylococcus aureus [3], 2 µg/mL (≈ 5.72 µM); against Streptococcus pneumoniae, 1 µg/mL (≈ 2.86 µM).

For the compound `CCCCOP(=O)(OCCCC)OC1=C(C(=O)[O-])N2C(=O)[C@@H](NC(=O)COc3ccccc3)[C@H]2CC1.[Na+]`, the MIC against Staphylococcus aureus [1] is 64 µg/mL; in assay [2], 1 µg/mL; in the assay on Escherichia coli, above 128 µg/mL; against Staphylococcus aureus [3], 0.5 µg/mL; in the assay with Streptococcus pneumoniae it was 0.03 µg/mL.

As a reminder, the MIC is the lowest concentration found to suppress growth. High values mean weaker potency, low ones greater potency.

For the origin of these results see ChEMBL document CHEMBL1127137, “3-phosphono-1-carba-1-dethiacephalosporins as antibacterial agents” (1993).
